Data set [1] has as its system allergen specific T cells. The experiment in a line: T cell proliferation assay (72 h) on donor derived T cell lines (TCL02/TCL03). In kind it is cell-based, human. To be noted: reference peptides of WO2010/089554, proliferation only. Put shortly: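 Overlapping 20-mer and selected 15-mer grass allergen peptides were screened for proliferation using TCL02 (day 24) or TCL03 (day 34) lines. Lines came from grass-allergic donors' CD8-depleted PBMCs, primed with natural allergen mix and expanded with irradiated autologous or allogeneic APCs, PHA-P 0.5 μg/ml and rIL-2.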

Data set [2] relates to grass pollen allergic donor derived T cell lines. The experiment in a line: Dose response titration in T cell proliferation assay. In kind it is cell-based, human.
Description: The dose-response relationship was tested by measuring the percentage of donor response (i.e. the percentage of donor coverage) in concentrations of 2.0, 0.1, 0.005 and 0.00025 μg/ml for the peptide combinations and in concentrations of 2.0, 0.2, 0.02 and 0.002 μg/ml for single peptides. The donor response was determined using T cell proliferation data as described in Example 3.
Relative magnitude value for a peptide or a peptide combination was calculated as percentage of highest T cell response to an allergen or a mix, by the same donor. In this way, allergen or peptide combination with highest magnitude of T cell response gets a value of 100 and T cell response magnitude of remaining peptides/peptide combinations are normalized or calculated relative to 100, for example Relative magnitude=100*(T cell response magnitude of peptide or combination/Highest T cell response in a donor). Relative magnitude were calculated mainly on Phl p 1. For donors non reactive to Phl p 1, Phl p 5 was used as reference
The donors were selected by seeking to maximize the HLA class II diversity in the donor cohort.
For peptide combinations, two set-ups were used:
A) Concentrations of 2.0, 0.1, 0.005 and 0.00025 μg/ml were tested on a set of T cell lines derived from 9 grass pollen allergic donors (same experiment as the data shown in FIG. 7b.).
B) Concentrations of 2.0, 0.066, 0.0022 and 0.00007 μg/ml were used on a set of T cell lines derived from 18 grass pollen allergic donors (same set as the donors used for testing of single peptides as described above).
Relative magnitude value for a peptide or a peptide combination was calculated as percentage of highest T cell response to an allergen or a mix, by the same donor. In this way, allergen or peptide combination with highest magnitude of T cell response gets a value of 100 and T cell response magnitude of remaining peptides/peptide combinations are normalized or calculated relative to 100, for example Relative magnitude=100*(T cell response magnitude of peptide or combination/Highest T cell response in a donor). […]
In data set [3] the test system is grass pollen allergic donor derived TCL-03 lines. The experiment in a line: Extended cross-reactivity study, proliferation on TCL03 DK1+DK2 (Study XR2), scoring. To be noted: study XR2. In kind it is cell-based, human.
Data set [4] has as its system grass allergic donor derived T cell lines (TCL-02 DK-2). The experiment in a line: Cross-reactivity of homologue peptides, proliferation on TCL02-DK2 (Study XR1). In kind it is cell-based, human. The conditions noted are these: 2 μg/ml, TCL02-DK2, 21 donors. Here is the method: To measure the experimental cross-reactivity the proliferation assay of Example 3 was carried out on 21 grass allergic donors (TCL02-DK2). […] Cross-reactivity to Phleum pratense peptides with either close (Lolium perenne (Lol p)) or distant (Phalaris aquatica (Pha a), Cynodon dactylon (Cyn d)) species was experimentally investigated.
For analysing the cross-reactivity data, it was investigated if a donor responds to both native and homologue peptide, XY correlation plots were made where the donor responses to native peptides were plotted versus the donor responses to homologues. […] If less than five donors were responding to the parent peptides, then the data was considered to be in-conclusive, and were thus labelled with “-”. For some of the peptides the analysis was further supported by performing a Spearman r-Non Parametric test (data not shown).
Further the magnitude of T cell response from a parent peptide as defined herein and homologue response were plotted in a XY plot by using GraphPad Prism 6.
To measure the experimental cross-reactivity, the proliferation assay of Example 3 was carried out on 21 grass pollen allergic donors (TCL02-DK2, Study XR1) and 20 grass pollen allergic donors (TCL03−DK1+DK2, Study XR2). […] In Study XR1, Cross-reactivity to Phleum pratense peptides with either close (Lolium perenne-Lol p) or distant ([…]-Pha a, Cynodon dactylon-Cyn d) species was experimentally investigated. In Study XR1, 67 homologue peptides corresponding to 41 native Phleum pratense peptides were investigated together with the 41 Phleum pratense peptides at a concentration of 2 μg/ml. Similarly, study XR2 was carried out on 20 grass pollen allergic donors where donor derived TCL-03 lines were used to investigate Phleum pratense cross-reactivity to Poa pratensis (Poa p), Dactylis glomerata (Dac g), Festuca pratensis (Fes p), Paspalum notatum (Pas n), Sorghum halepense (Sor h), Lolium perenne (Lol p), Phalaris aquatica (Pha a) and Cynodon dactylon (Cyn d).

Data set [5] in a line: Peptide solubility by visual inspection. In kind it is physicochemical. How it is done: Water (pH 3-5) • 2. 250 mM D-Mannitol and 25 mM sodium acetate, pH 4.5 • 3. 250 mM D-Mannitol and 25 mM sodium phosphate, pH 7.0 • 4. […] Water (pH 3-5) • 2. 250 mM D-Mannitol and 25 mM sodium acetate, pH 4.5 • 3. 250 mM D-Mannitol and 25 mM sodium phosphate, pH 7.0 • 4. […] A subset of the peptides was selected as candidate peptides for a final peptide mixture. […] During the solubility studies the peptide-containing solutions were inspected visually before and after filtration for turbidity, and presence of particles/aggregates. In addition, presence of turbidity/particles/aggregates was also detected by optical density (OD) or absorbance of filtered material, but might also be detected by size-exclusion chromatography. Furthermore, Sub-visual particles may also be detected by dynamic light scattering (DLS) analysis on filtered and non-filtered peptide containing solutions. Samples were furthermore subjected to centrifugation to allow for the possible visual inspection of pelleted material.

Data set [6] is described as follows: Extended solubility and short term stability study (visual, U-HPLC recovery, DLS, 90LS, UV-VIS, sum of scores). How it is done:
For that purpose, the peptides were provided as acetate salts (produced by Innovagen® at a >10 mg scale of manufacturing). To take into account batch-to-batch variations, some peptides were tested from other batches of the manufacturer Innovagen®, as well as from another manufacturer (Almac) and from in-house production. Solubility experiments were performed on peptide in solution in concentrations ranging from 0.5 mg/mL to 3 mg/mL (dry matter)—with the following solvents: • Water • Acetate buffer, pH 4.5 (25 mM sodium acetate containing 250 mM D-Mannitol) • Phosphate buffer, pH 7.0 (25 mM sodium phosphate containing 250 mM D-Mannitol) • Glycine buffer, pH 8.5 (25 mM glycine containing 250 mM D-Mannitol)
The solubility of the peptides was initially investigated by visual inspection and U-HPLC recovery. Visual inspection included assessment of turbidity and presence of particles/aggregates of each peptide solution before and after centrifugation as well as visual inspection of pelleted material. The visual inspection were reported as “clear solution”, “very small precipitation only visible with a magnifier”, “precipitation visible/turbid solution” or “more precipitation/turbid solution”. Filtration of peptide solutions were conducted using syringe based filters containing a polyethersulfone (PES) membrane chemistry and a pore size of 0.2 μm. The amount of the peptide in the supernatant of a filtered sample was determined using U-HPLC with reverse phase chromatography and recovery were determined as described in Example 5.
Peptide solutions were investigated at a time point of 1 hour after production, but were also repeated at later time point (e.g. 24. 48 or 96 hours) to investigate the stability of the peptides.
Peptide solutions were investigated to determine the presence of turbidity/particles/aggregates by use of optical density (OD) and change in UV-VIS absorbance at a wavelength of 320 nm, of the filtrate. […] In addition or as an alternative, the amount of the peptide in the supernatant of a filtered sample was determined using U-HPLC as described above, with the exception that the recovery was determined by dividing the peak area of the filtered sample in relation to the peak area in the original solution prior to filtration. See also Example 5 for further details regarding UV-VIS, and recovery measured by U-HPLC.
The peptides were scored in relation to the outcome of the above mentioned tests: For each peptide in a given buffer and at a given concentration, a sum of test scores was calculated and the sum used to rank the peptides according to solubility: • 1. […] DLS peak 1 number 3 nm gave a score of 1, 3-10 nm gave a score of 2, 10-100 nm gave a score of 3, >100 nm gave a score of 4. • 5. 90LS at 400 nm: Intensity <450 gave a score of 1, <800 gave a score of 2, >800 gave a score of 3. • 6. UV-VIS change in absorbance at 320 nm within 24 hours: 0.01 gave a score of 1, ≤0.05 gave a score of 2, 0.0.2 gave a score of 3 and >0.2 gave a score of 4.

Where no end group is shown, it is not given here.

Regarding `CC[C@H](C)[C@H](NC(=O)[C@H](C)NC(=O)[C@H](CCCCN)NC(=O)[C@@H](NC(=O)[C@H](CC(C)C)NC(=O)[C@H](C)NC(=O)[C@H](C)NC(=O)[C@H](CCC(=O)O)NC(=O)[C@H](Cc1ccccc1)NC(=O)[C@@H](NC(=O)[C@H](C)NC(=O)[C@H](Cc1ccc(O)cc1)NC(=O)[C@H](CCCCN)NC(=O)[C@@H](NC(=O)[C@H](CCC(=O)O)NC(=O)[C@@H]1CCCN1C(=O)[C@@H](N)CCCCN)C(C)C)C(C)C)[C@@H](C)O)C(=O)N[C@H](C(=O)O)[C@@H](C)O` [peptide 142], the average relative magnitude result in data set [1] is given as “around 8”. Moreover, the “donor coverage, dose response of single peptides” value in data set [2] (0.002 μg/ml, 25 donor derived T cell lines) is reported as around 35%. The “average relative magnitude calculated over all donors” value in data set [2] (single peptides, FIG. 21) is on record as “in the same range”.

For the molecule YHFDLSGHAFGAMAKKGDEQ-OH [peptide 205], in data set [3] (homologue from Cyn d, score 0 to 7), the “Cross-reactivity score, Cyn d” value came out at 2. Moreover, the “Cross-reactivity score, Dac g” value in data set [3] (homologue from Dac g, score 0 to 7) worked out at 7. The “Cross-reactivity score, Fes p” value in data set [3] (homologue from Fes p, score 0 to 7) is 7. Also, in data set [3] (homologue from Lol p, score 0 to 7), the “Cross-reactivity score, Lol p” value was 7. Further, the “Cross-reactivity score, Pha a” value in data set [3] (homologue from Pha a, score 0 to 7) came out at 6. Besides, the “Cross-reactivity score, Poa p” value in data set [3] (homologue from Poa p, score 0 to 7) is 3. For the same molecule, in data set [3] (homologue from Sor h, score 0 to 7), the “Cross-reactivity score, Sor h” value was found to be 7. In data set [3] (scores of all species added), the Cross-reactivity sum was 39. In addition, in data set [3] (sum divided by the number of species measured), the Cross-reactivity/species is on record as 5. Also, the experimental cross-reactivity entry in data set [4] is “showed cross-reactivity”. Besides, the “solubility, 1st round of solubility screening” value in data set [5] was “soluble”. Also, in data set [6], the “solubility in all the test samples (concentrations and pH tested), all solubility tests” value was “good solubility”; the “solubility in aqueous solutions and short-term stability” value is listed as “sufficiently soluble”. For the same molecule, the solubility result in data set [6] (pH 4.5) is “acceptable solubility”.

The values above are taken from patent publication US20180207228A1, “PEPTIDE COMBINATIONS AND USES THEREOF FOR TREATING GRASS ALLERGY” (ALK-Abelló A/S, priority 2015, published 2018).
